Measurements as given in patent publication US8119563B2, “N-substituted azacycles” (FMC Corporation, priority 2003, dated 2012).

System: tobacco budworm (Heliothis virescens [Fabricius])
Assay: surface-treated diet test, insecticidal activity against tobacco budworm
Type: in vivo
Conditions: 0.25 millimoles of candidate insecticide on the surface of the diet, second instar larvae, five-day exposure; for Percent Mortality: compared to total number of insects infested; for Percent Growth Inhibition: inhibition of insect weight relative to untreated controls
Summary of the method: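 Wheat germ artificial diet surface-treated with compound from 50 mM DMSO stock diluted 1:7 in 1:1 water/acetone (0.25 millimolar on diet), or lower-rate dilutions; DMSO-only controls. One second-instar larva per well, 25° C, 60% RH, 14 h light, five days; percent weight inhibition versus untreated and percent mortality scored.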

Row | Compound | Percent Mortality [%] | Percent Growth Inhibition [%]
1 | CC1(C)[C@H]2CCC1(CS(=O)(=O)[O-])C(=O)C2.OC1(C(c2ccc(OC(F)(F)F)cc2)c2ccc(OC(F)(F)F)cc2)CC[N+](O)(Cc2ccc(Oc3ccccn3)cc2)CC1 (stereo not drawn) [Compound 498] | 100 | 100
2 | CCCCC(CC)C(=O)[O-].OC1(C(c2ccc(OC(F)(F)F)cc2)c2ccc(OC(F)(F)F)cc2)CC[N+](O)(Cc2ccc(Oc3ccccn3)cc2)CC1 (stereo not drawn) [Compound 499] | 100 | 100
3 | O=S(=O)([O-])CCCO.OC1(C(c2ccc(OC(F)(F)F)cc2)c2ccc(OC(F)(F)F)cc2)CC[N+](O)(Cc2ccc(Oc3ccccn3)cc2)CC1 (stereo not drawn) [Compound 500] | 100 | 100
4 | CON=C(Cl)c1ccc(C[N+]2(O)CCC(O)(C(c3ccc(OC(F)(F)F)cc3)c3ccc(OC(F)(F)F)cc3)CC2)cc1.O=C(O)CC(O)(CC(=O)O)C(=O)[O-] (stereo not drawn) [Compound 501] | 100 | 100
5 | O=C([O-])C1CCCCC1.OC1(C(c2ccc(OC(F)(F)F)cc2)c2ccc(OC(F)(F)F)cc2)CC[N+](O)(Cc2ccc(Oc3ccccn3)cc2)CC1 (stereo not drawn) [Compound 502] | 100 | 100
6 | CCOC(C)C(=O)[O-].OC1(C(c2ccc(OC(F)(F)F)cc2)c2ccc(OC(F)(F)F)cc2)CC[N+](O)(Cc2ccc(Oc3ccccn3)cc2)CC1 (stereo not drawn) [Compound 503] | 100 | 100
7 | O=C(O)CC(O)(CC(=O)O)C(=O)[O-].OC1(C(c2ccc(OC(F)(F)F)cc2)c2ccc(OC(F)(F)F)cc2)CC[N+](O)(Cc2ccc(Oc3ccccn3)cc2)CC1 (stereo not drawn) [Compound 504] | 100 | 100
8 | CC1(C)[C@@H]2CCC1(CS(=O)(=O)[O-])C(=O)C2.OC1(C(c2ccc(OC(F)(F)F)cc2)c2ccc(OC(F)(F)F)cc2)CC[N+](O)(Cc2ccc(Oc3ccccn3)cc2)CC1 (stereo not drawn) [Compound 505] | 100 | 100
9 | CCS(=O)(=O)[O-].OC1(C(c2ccc(OC(F)(F)F)cc2)c2ccc(OC(F)(F)F)cc2)CC[N+](O)(Cc2ccc(Oc3ccccn3)cc2)CC1 (stereo not drawn) [Compound 506] | 100 | 100
10 | CC1(C)[C@@H]2CCC1(CS(=O)(=O)[O-])C(=O)C2.CCON=Cc1ccc(C[N+]2(O)CCC(O)(C(c3ccc(OC(F)(F)F)cc3)c3ccc(OC(F)(F)F)cc3)CC2)cc1 (stereo not drawn) [Compound 507] | 100 | 100
11 | O=S(=O)([O-])C(F)(F)C(F)(F)C(F)(F)C(F)(F)F.OC1(C(c2ccc(OC(F)(F)F)cc2)c2ccc(OC(F)(F)F)cc2)CC[N+](O)(Cc2ccc(Oc3ccccn3)cc2)CC1 (stereo not drawn) [Compound 508] | 100 | 100
12 | CC(C)=CCCC(C)CC(=O)[O-].OC1(C(c2ccc(OC(F)(F)F)cc2)c2ccc(OC(F)(F)F)cc2)CC[N+](O)(Cc2ccc(Oc3ccccn3)cc2)CC1 (stereo not drawn) [Compound 509] | 100 | 100
13 | O=C([O-])CO.OC1(C(c2ccc(OC(F)(F)F)cc2)c2ccc(OC(F)(F)F)cc2)CC[N+](O)(Cc2ccc(Oc3ccccn3)cc2)CC1 (stereo not drawn) [Compound 510] | 100 | 100
14 | O=C([O-])C12CC3CC(CC(C3)C1)C2.OC1(C(c2ccc(OC(F)(F)F)cc2)c2ccc(OC(F)(F)F)cc2)CC[N+](O)(Cc2ccc(Oc3ccccn3)cc2)CC1 (stereo not drawn) [Compound 511] | 100 | 100
15 | O=C([O-])CCCC(=O)O.OC1(C(c2ccc(OC(F)(F)F)cc2)c2ccc(OC(F)(F)F)cc2)CC[N+](O)(Cc2ccc(Oc3ccccn3)cc2)CC1 (stereo not drawn) [Compound 512] | 100 | 100
16 | CCCCCCCC/C=C/CCCCCCCC(=O)[O-].OC1(C(c2ccc(OC(F)(F)F)cc2)c2ccc(OC(F)(F)F)cc2)CC[N+](O)(Cc2ccc(Oc3ccccn3)cc2)CC1 (stereo not drawn) [Compound 513] | 100 | 100
17 | O=C([O-])CCCCCC(=O)O.OC1(C(c2ccc(OC(F)(F)F)cc2)c2ccc(OC(F)(F)F)cc2)CC[N+](O)(Cc2ccc(Oc3ccccn3)cc2)CC1 (stereo not drawn) [Compound 514] | 100 | 100
18 | CCCCCCCCCCCCc1ccc(S(=O)(=O)[O-])cc1.OC1(C(c2ccc(OC(F)(F)F)cc2)c2ccc(OC(F)(F)F)cc2)CC[N+](O)(Cc2ccc(Oc3ccccn3)cc2)CC1 (stereo not drawn) [Compound 515] | 100 | 100
19 | O=C([O-])CCCCC(=O)O.OC1(C(c2ccc(OC(F)(F)F)cc2)c2ccc(OC(F)(F)F)cc2)CC[N+](O)(Cc2ccc(Oc3ccccn3)cc2)CC1 (stereo not drawn) [Compound 516] | 100 | 100
20 | CCCCCCCC(=O)[O-].OC1(C(c2ccc(OC(F)(F)F)cc2)c2ccc(OC(F)(F)F)cc2)CC[N+](O)(Cc2ccc(Oc3ccccn3)cc2)CC1 (stereo not drawn) [Compound 517] | 100 | 100
21 | CCS(=O)(=O)[O-].OC1(C(c2ccc(C(F)(F)F)cc2)c2ccc(C(F)(F)F)cc2)CC[N+](O)(Cc2ccc(Oc3ccc(Cl)nn3)cc2)CC1 (stereo not drawn) [Compound 518] | 100 | 100
22 | O=S(=O)([O-])C(F)(F)C(F)(F)C(F)(F)C(F)(F)C(F)(F)C(F)(F)C(F)(F)C(F)(F)C(F)(F)F.OC1(C(c2ccc(C(F)(F)F)cc2)c2ccc(C(F)(F)F)cc2)CC[N+](O)(Cc2ccc(Oc3ccc(Cl)nn3)cc2)CC1 (stereo not drawn) [Compound 520] | 100 | 100
23 | CC(C)OC(=O)Nc1ccc(C[N+]2(Cc3ccc(NC(=O)OC(C)C)cc3)CCC(O)(C(O)(c3ccc(OC(F)(F)F)cc3)c3ccc(OC(F)(F)F)cc3)CC2)cc1.[Cl-] [Compound 521] | 50 | 100
24 | Cl.OC1(C(c2ccc(OC(F)(F)F)cc2)c2ccc(OC(F)(F)F)cc2)CCN(Cc2ccc(Oc3ccccn3)cc2)CC1 [Compound 522] | 100 | 100
